Experimental data taken from patent publication US20260216179A1, “1,5-NAPHTHYRIDINE DERIVATIVES AS KRAS ONCOPROTEIN INHIBITORS” (Beta Pharma, Inc., priority 2022, published 2026).
Like-named read-outs stand apart in the source and are kept apart here.

What was measured:
KRAS G12C [1] = target: T1, KRAS G12C (Homo sapiens, UniProt P01116, G12C); experiment: NanoBRET target engagement cellular assay in transiently transfected HEK293 cells; format: cell-based; design: expressed in transfected cells; host or cells: HEK293, transiently transfected; settings: RAS tracer K2 1 μM, 2 hours at 37° C.
Procedure: KRAS G12C cellular activity was determined in a target engagement cellular assay (NanoBRET™) in transiently transfected HEK293 cells by Reaction Biology Corporation (RBC), 1 Great Valley Parkway, Suite 2 Malvern, PA 19355, USA. HEK293 were cultivated to 70-80% confluence prior to the assay followed by trypsinizing and collection of the cells. BI-2852 was used as the KRAS G12C reference compound. Each test compound solution was delivered from a compound source plate to the wells of 384-well white non-binding surface plate by an Echo 550 prior to the assay.
A 10 μg/mL solution of DNA in Opti-MEM was prepared without serum that consisted of 1 μg LgBiT®-KRAS (G12C)-NanoLuc fusion vector, 1 μg SmBIT®-KRAS (G12C)-NanoLuc fusion vector and 8 μg transfection carrier DNA. This mixture was subsequently treated with 30 μL of FuGENE HD Transfection Reagent into each milliliter of DNA mixture to form a lipid: DNA complex. The resulting mixture was then gently mixed by inversion and incubated at ambient temperature for 20 minutes to allow complexes to form. A mixture of 1 part of lipid: DNA complex with 20 parts of suspended HEK293 cells was added to a sterile conical tube and mixed gently by inversion. The cells+lipid: DNA complex mixture was then added to a sterile tissue culture dish and incubated for 24 hours. The medium was removed from the dish via aspiration followed by trypsinizing and allowing the cells to dissociate from the tissue culture dish. The trypsin was subsequently neutralized by using medium containing serum and centrifugation at 200×g for 5 minutes to pellet the cells in the conical tube. The cell density was adjusted to 2×10^5 cells/mL in Opti-MEM without phenol red. One part of Complete 20× NanoBRET™ RAS Tracer Reagent was dispensed to 20 parts of cells in the conical tube and mixed gently by inversion. The resulting cell suspension was dispensed into a white, 384-well NBS plate containing the test compounds (starting at 10 μM, 10-dose with 3-fold dilution) at 37° C., 5% CO2 for 2 hours. The final concentration for RAS tracer K2 was 1 μM. […]
Freshly prepared substrate solution (3×) in the assay medium was added to each well of the 384-well NBS plate and incubated for 3 minutes at room temperature. The donor emission wavelength (460 nm) and acceptor emission wavelength (600 nm) were measured using an Envision 2104 plate reader. […] The BRET ratio was calculated using the following equation: BRET Ratio= [(Acceptor sample÷Donor sample)−(Acceptor no-tracer control[…]Donor no-tracer control)]. The normalized BRET response (%) was calculated by the following equation: (BRET ratio of test compound/BRET ratio of DMSO control)*100%. The IC50 curves were plotted and IC50 values were calculated with GraphPad Prism 4 based on a sigmoidal dose-response equation.
Target sequence in this assay (P01116 1-186 isoform P01116-2 G12C limits assumed): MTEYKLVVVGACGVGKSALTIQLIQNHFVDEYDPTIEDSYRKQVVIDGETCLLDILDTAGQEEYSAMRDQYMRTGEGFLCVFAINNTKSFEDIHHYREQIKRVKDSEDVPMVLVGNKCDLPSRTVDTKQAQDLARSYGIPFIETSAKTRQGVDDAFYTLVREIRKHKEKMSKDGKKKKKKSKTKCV
Target sequence in this assay (P01116 1-186 isoform P01116-2 G12C limits assumed): as above

KRAS G12C [2] = target: T1, KRAS G12C; experiment: KRAS G12C/SOS1 nucleotide exchange assay (Bodipy-GDP to GTP exchange); format: biochemical; design: KRAS G12C or KRAS G12D (aa 2-169, expressed in E. coli); His-tag (TEV cleavable) (N); purchased Reaction Biology Corporation (RBC), which ran the assay MSC-11-502 (SOS1 only; none given for KRAS); host or cells: E. coli; settings: SOS1-mediated Bodipy-GDP/KRAS G12C exchange; dRFU analysis method for covalent inhibitors; 30 min pre-incubation at RT; 0.5% DMSO
Procedure: (§1) The biological activity of the Examples was determined in a KRAS
(§2) The assay evaluates the SOS1-mediated Bodipy-GDP to GTP exchange observed with KRAS G12C and KRAS G12D.
(§3) Reaction Buffer: 40 mM HEPES 7.4, 10 mM MgCl2, 1 mM DTT 0.002% Triton X100, 0.5% DMSO.
(§4) • 1. Deliver 10 μL of 1.5× KRAS solution in freshly prepared reaction buffer to reaction wells. • 2. Deliver compounds in 100% DMSO into buffer using acoustic technology (Echo550; nanoliter range). • 3. Incubate compounds with KRAS for 30 minutes at room temperature. • 4. Prepare 3× (SOS1+GTP) solution in reaction buffer. • 5. Deliver 5 μL of SOS1+GTP solution into reactions wells (deliver GTP only to column 1 for no SOS1 control). • 6.
Data Analysis: The fluorescence data was normalized using the equation below and fitted to “one phase exponential decay” equation using GraphPad prism software. The plateau was fixed to zero (use for non-covalent inhibitors) and rate ×1000 was used to calculate the IC50 values.
(§5) where Yraw is defined as fluorescence at time t, Ao is the average initial fluorescence with no SOS1, and Mis the minimum fluorescence at the end of the reaction at the maximum SOS1.
The background subtracted signals (no SOS1 protein wells were used as background) were converted to % activity relative to DMSO controls. Data was analyzed using GraphPad Prism 4 with “sigmoidal dose-response (variable slope)”; 4 parameters with Hill Slope. The constraints were bottom (constant equal to 0) and top (must be less than 120).
Target sequence in this assay (P01116 2-169 G12C): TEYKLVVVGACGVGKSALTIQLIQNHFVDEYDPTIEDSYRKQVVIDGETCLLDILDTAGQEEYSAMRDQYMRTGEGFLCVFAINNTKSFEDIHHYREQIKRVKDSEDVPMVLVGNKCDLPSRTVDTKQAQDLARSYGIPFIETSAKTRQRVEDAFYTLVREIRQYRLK

KRAS G12D = target: T2, KRAS G12D (Homo sapiens, UniProt P01116, G12D); experiment: KRAS G12D/SOS1 nucleotide exchange assay (Bodipy-GDP to GTP exchange); format: biochemical; settings: SOS1-mediated Bodipy-GDP/KRAS G12D exchange; rate constant method (plateau = 0) for reversible inhibitors; 30 min pre-incubation at RT; 0.5% DMSO
T2 construct: KRAS G12C or KRAS G12D (aa 2-169, expressed in E. coli); His-tag (TEV cleavable) (N); purchased Reaction Biology Corporation (RBC), which ran the assay MSC-11-502 (SOS1 only; none given for KRAS); host or cells: E. coli
Procedure: as §1, §2
The compound pre-incubation time was 30 min at RT and the curve fits were performed when the activities at the highest concentration of compounds were less than 65%.
as §3
as §4, with “Deliver 5 μL of SOS1+GTP solution into reactions wells (deliver GTP only to column 1 for no SOS1 control). • 6.” left out
Data Analysis: The fluorescence data was normalized using the equation below and fitted to “one phase exponential decay” equation using GraphPad prism software. […]
as §5
The background subtracted signals (no SOS1 protein wells were used as background) were converted to % activity relative to DMSO controls. Data was analyzed using GraphPad Prism 4 with “sigmoidal dose-response (variable slope)”; 4 parameters with Hill Slope. […]

MIA PaCa-2 cells = experiment: CellTiter-Glo viability assay; format: cell-based; settings: Homo sapiens, 72 hours, read-out: CTG Assay IC50 Values
Procedure: The reference compound staurosporine was purchased from Sigma-Aldrich (Saint Louis, MI). CellTiter-Glo® 2.0 Luminescent cell viability assay reagent was purchased from Promega (Madison, WI). MIA PaCa-2 cell line was purchased from American Type Culture Collection (Manassas, VA). MIA PaCa-2 cells were cultured in DMEM containing 10% FBS, 2.5% horse serum, 100 μg/ml of penicillin and 100 μg/ml of streptomycin. Cultures were maintained at 37° C. in a humidified atmosphere of 5% CO2 and 95% air.
Test compounds and reference compound, staurosporine, were diluted in DMSO solution with 10-dose and 3-fold dilution in a source plate starting at 10 mM. • 2. 25 nL of test compounds or 25 nL of staurosporine was delivered from the source plate to each well of the 384-well cell culture plate by Echo 550. • 3. 25 μL of culture media containing 2000 cells was added to each of the wells of the cell culture plate in duplicate. • 4. The cells were incubated with the compounds at 37° C., 5% CO2 for 72 hours. • 5. […] Luminescence was recorded by Envision 2104 Multilabel Reader (PerkinElmer, Santa Clara, CA). The number of viable cells in culture was determined based on quantitation of the ATP present in each culture well. • 8. The IC50 curves were plotted and IC50 values were calculated using the GraphPad Prism 4 program based on a sigmoidal dose-response equation

[3] = PK profile in male CD1 mice; format: in vivo; settings: for MRT inf: read-out: MRT0-inf; for MRT last: read-out: MRT0-last
From the text: PK Profile in male CD1 mice:

[4] = 3 mg/kg, i.v., single dose, mean plasma
[5] = 30 mg/kg, p.o., single dose, mean plasma
[6] = mouse, iv, 3 mg/kg, i.v., single dose, mean plasma
[7] = mouse, iv, 3 mg/kg, single dose, mean plasma
[8] = mouse, po, 30 mg/kg, p.o., single dose, mean plasma
[9] = mouse, po, 30 mg/kg, single dose, mean plasma

T2 sequence (P01116 2-169 G12D): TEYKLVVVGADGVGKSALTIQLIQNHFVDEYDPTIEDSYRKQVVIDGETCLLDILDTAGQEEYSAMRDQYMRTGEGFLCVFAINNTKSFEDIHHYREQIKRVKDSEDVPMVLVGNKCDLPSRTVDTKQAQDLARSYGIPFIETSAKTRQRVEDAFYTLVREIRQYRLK

**Q.** Which IC50 (KRAS G12C [1]) does the source give for `Cn1cnc(Cn2ccc3ccc(CNCc4[nH]c5ccccc5c4[C@H]4NC(=O)c5ccc(O)cc54)cc32)c1` [BI-2852, reference compound] here?
**A.** 0.32 µM

**Q.** Which IC50 (KRAS G12C [1]) does the source give for `C=CC(=O)N1CCN(c2cc(OC[C@@H]3CCCN3C)nc3cc(-c4cccc5cccc(Cl)c45)cnc23)C[C@@H]1CC#N` [Example 1, 2-((S)-1-Acryloyl-4-(7-(8-chloronaphthalen-1-yl)-2-(((S)-1-methylpyrrolidin-2-yl)methoxy)-1,5-naphthyridin-4-yl)piperazin-2-yl)acetonitrile] here?
**A.** 0.0044 µM

**Q.** And the IC50 (KRAS G12C [2])?
**A.** 0.038 µM

**Q.** With `C=C(F)C(=O)N1CCN(c2cc(OC[C@@H]3CCCN3C)nc3cc(-c4cccc5cccc(Cl)c45)cnc23)C[C@@H]1CC#N` [Example 2, 2-((S)-4-(7-(8-Chloronaphthalen-1-yl)-2-(((S)-1-methylpyrrolidin-2-yl)methoxy)-1,5-naphthyridin-4-yl)-1-(2-fluoroacryloyl)piperazin-2-yl)acetonitrile] as the compound, how does the IC50 (KRAS G12C [2]) read?
**A.** 0.13 µM

**Q.** For `CC(=O)c1c(F)ccc2cc(O)cc(-c3cnc4c(N5C[C@H]6CC[C@@H](C5)N6)cc(OC[C@@]56CCCN5C[C@H](F)C6)nc4c3)c12` [Example 3, 1-(8-(8-((1R,5S)-3,8-Diazabicyclo[3.2.1]octan-3-yl)-6-(((2R,7aS)-2-fluorotetrahydro-1H-pyrrolizin-7a(5H)-yl)methoxy)-1,5-naphthyridin-3-yl)-2-fluoro-6-hydroxynaphthalen-1-yl)ethan-1-one], which IC50 (KRAS G12D) is on record?
**A.** 1.5 µM

**Q.** Which IC50 (KRAS G12D) does the source give for `Oc1cc(-c2cnc3c(N4C[C@H]5CC[C@@H](C4)N5)cc(OCC45CCCN4CCC5)nc3c2)c2ccccc2c1` [Example 4, 4-(8-((1R,5S)-3,8-Diazabicyclo[3.2.1]octan-3-yl)-6-((tetrahydro-1H-pyrrolizin-7a(5H)-yl)methoxy)-1,5-naphthyridin-3-yl)naphthalen-2-ol] here?
**A.** 1 µM

**Q.** For `C=CC(=O)N1CCN(c2cc(OCC34CCCN3CCC4)nc3cc(-c4cccc5cccc(Cl)c45)cnc23)C[C@@H]1CC#N` [Example 5, (S)-2-(1-acryloyl-4-(7-(8-chloronaphthalen-1-yl)-2-((tetrahydro-1H-pyrrolizin-7a(5H)-yl)methoxy)-1,5-naphthyridin-4-yl)piperazin-2-yl)acetonitrile], which IC50 (MIA PaCa-2 cells) is on record?
**A.** 2.88 µM

**Q.** What about the AUCExtra [3, 4] of the same compound?
**A.** 2.52%

**Q.** What about the AUMCExtra [3, 4] of the same compound?
**A.** 14.3%

**Q.** And the Tlast [3, 4]?
**A.** 8.00 h

**Q.** And the AUCExtra [3, 5]?
**A.** 0.315%

**Q.** And the AUMCExtra [3, 5]?
**A.** 1.85%

**Q.** What about the Tlast [3, 5] of the same compound?
**A.** 24.0 h

**Q.** What about the MRT inf [3, 6] of the same compound?
**A.** 1.77 h

**Q.** What about the MRT last [3, 6] of the same compound?
**A.** 1.56 h

**Q.** And the Vd ([3]; mouse, iv, 3 mg/kg, i.v., single dose, mean plasma, read-out: Vdss)?
**A.** 7.7 L/kg

**Q.** What about the AUC(0-inf) [3, 7] of the same compound?
**A.** 0.691 µg·h/mL

**Q.** What about the AUC(0-t) [3, 7] of the same compound?
**A.** 0.673 µg·h/mL

**Q.** And the C0 [3, 7]?
**A.** 0.8 µg/mL

**Q.** What about the clearance [3, 7] of the same compound?
**A.** 4.34 L/h/kg

**Q.** What about the half-life [3, 7] of the same compound?
**A.** 1.42 h

**Q.** And the bioavailability ([3]; mouse, plasma, oral, 30 mg/kg, p.o., single dose vs 3 mg/kg i.v.)?
**A.** 21.7%

**Q.** And the MRT inf [3, 8]?
**A.** 4.79 h

**Q.** What about the MRT last [3, 8] of the same compound?
**A.** 4.72 h

**Q.** And the AUC(0-inf) [3, 9]?
**A.** 1.5 µg·h/mL

**Q.** And the AUC(0-t) [3, 9]?
**A.** 1.5 µg·h/mL

**Q.** And the Cmax [3, 9]?
**A.** 0.249 µg/mL

**Q.** What about the Tmax [3, 9] of the same compound?
**A.** 1 h

**Q.** What about the half-life [3, 9] of the same compound?
**A.** 2.85 h

**Q.** And the IC50 (KRAS G12C [1])?
**A.** < 0.0005 µM

**Q.** And the IC50 (KRAS G12C [2])?
**A.** 0.038 µM

**Q.** What does the source list for `C=C(F)C(=O)N1CCN(c2cc(OCC34CCCN3CCC4)nc3cc(-c4cccc5cccc(Cl)c45)cnc23)C[C@@H]1CC#N` [Example 6, (S)-2-(4-(7-(8-chloronaphthalen-1-yl)-2-((tetrahydro-1H-pyrrolizin-7a(5H)-yl)methoxy)-1,5-naphthyridin-4-yl)-1-(2-fluoroacryloyl)piperazin-2-yl)acetonitrile]?
**A.** IC50 (KRAS G12C [1]): 0.334 µM; IC50 (KRAS G12C [2]): 0.059 µM

**Q.** Which IC50 (KRAS G12C [2]) does the source give for `C=CC(=O)N1CCN(c2cc(OC[C@@]34CCCN3C[C@H](F)C4)nc3cc(-c4cccc5cccc(Cl)c45)cnc23)C[C@@H]1CC#N` [Example 7, 2-((S)-1-acryloyl-4-(7-(8-chloronaphthalen-1-yl)-2-(((2R,7aS)-2-fluorotetrahydro-1H-pyrrolizin-7a(5H)-yl)methoxy)-1,5-naphthyridin-4-yl)piperazin-2-yl)acetonitrile] here?
**A.** 0.031 µM

**Q.** Which IC50 (KRAS G12C [2]) does the source give for `C=C(F)C(=O)N1CCN(c2cc(OC[C@@]34CCCN3C[C@H](F)C4)nc3cc(-c4cccc5cccc(Cl)c45)cnc23)C[C@@H]1CC#N` [Example 8, 2-((S)-4-(7-(8-chloronaphthalen-1-yl)-2-(((2R,7aS)-2-fluorotetrahydro-1H-pyrrolizin-7a(5H)-yl)methoxy)-1,5-naphthyridin-4-yl)-1-(2-fluoroacryloyl)piperazin-2-yl)acetonitrile] here?
**A.** 0.065 µM

**Q.** With `CN[C@@H]1C[C@H]2O[C@@](C)([C@@H]1OC)n1c3ccccc3c3c4c(c5c6ccccc6n2c5c31)C(=O)NC4` [Staurosporine, staurosporine, reference compound] as the compound, how does the IC50 (MIA PaCa-2 cells) read?
**A.** 0.249 µM
